For 2 molecules, melting point results are on record in patent US20020041880A1, “Method of treating cancer” (priority 2000, published 2002).

What is called melting point is the temperature of the solid-liquid transition.

`c1cc(-c2cnn3cc(-c4ccc(OCCN5CCCCC5)cc4)cnc23)cs1` [Example 4, 6-[4-(2-piperidin-1-yl-ethoxy)-phenyl]-3-thiophen-3-yl-pyrazolo[1,5-a]pyrimidine] gave a melting point of 141 to 143 °C.

`c1cc(-c2cnn3cc(-c4ccc(OCCN5CCOCC5)cc4)cnc23)cs1` [Example 3, 3-(3-thienyl)-6-(4-(2-(4-morpholinyl)ethoxy)phenyl)pyrazolo(1,5-A)pyrimidine] gave a melting point of 149 to 151 °C.
